In brackets after ≈: the same amount, converted by molar mass. Several values for one entry are separate records, joined by “and”; a condition that tells them apart may be missing. Equal values may be shown once. Read-outs that look alike come from different tables or passages of the source.

The results in this text go back to US4371673A, “Water soluble forms of retinoids” (The United States of America as represented by the …, priority 1980, dated 1983).

Series [1] has as its system vitamin A-deficient rats. Kind of series: Retinol in serum and liver of treated vitamin A-deficient rats (spectrophotometric), resorption studies. Also noted: species or system rat (male weanling albino, Holtzman). To be noted: rat, in vivo, ip.
The nature of series [2]: Direct solubilization of retinoids by cyclodextrins and their derivatives. It counts as physicochemical. The conditions noted are these: read-out: Solubility of retinoid in physiological buffered saline. From the text: It has been discovered that by appropriately selecting a derivatized cyclodextrin, it is unnecessary to prepare a retinoid-polymer compound preliminary to, or concurrent with, the preparation of the complex. This greatly simplifies the process of dissolving a retinoid. Thus, to prepare a solution of the cyclodextrin retinoid complex, it is merely necessary to add the components, retinoid and cyclodextrin, with stirring to an aqueous medium, such as a saline or isotonic solution, at room temperature. If one has a suitable cyclodextrin available, it is unnecessary to synthesize the cyclodextrin retinoid-polymer.
Some examples of the solubility obtained for retinoid-dextrin complexes of the present invention in physiologically acceptable solutions are presented in Table 1. It may be noted that while the solubility of a complex of one retinoid with a particular cyclodextrin may not be great, the solubility of a complex of another retinoid, using the same cyclodextrin, may be increased several orders of magnitude.
Solubility of retinoid (μg/ml)
in physiological buffered saline
(NaCl, 8 g/L; Na2 HPO4.7H2 O,
2.2g/L; KCl, 0.2 g/L and […]

In series [3] the test system is vitamin A-deficient rats. The series can be described thus: Vitamin A-like activity measured by survival of rats fed vitamin A-deficient diet. It counts as in vivo, rat (male weanling albino, Holtzman). The conditions noted are these: for No. of surviving animals/total: 100 μg retinal equivalent for complex. As for the experimental part:
Studies were undertaken to determine whether the chemical modification of retinoids to polymer-linked water soluble forms alter its biological activities. Specifically, the vitamin A-like activity of the mixed α-, β-dextrin complex of retinal-carboxymethyldextran hydrazone was tested on rats made vitamin A-deficient. The "animals" referred to herein should be construed as meaning rats.
To prepare the rats for dietary studies, male weanling albino rats of the Holtzman string were fed a vitamin A-deficient diet until a weight plateau was reached. A cyclic program was then begun in which the rats which were provided with the deficient diet were supplemented with retinoic acid at a rate of 2 μg per g. This was continued for 18 days followed by 10 days of the original deficient diet. At the termination of the fourth 18-day period in which the rats were fed the retinoic acid supplemented diet, the rats were fed for 7 days with the deficient diet and then used in two types of experiments: (a) Studies of the resorption of retinal-carboxymethyldextran hydrazone from the gastrointestinal tract and (b) studies of growth support for avitamineosis. The results of the resorption studies (a) were determined by spectrophotometrically analyzing for retinol in the serum or liver. The vitamin A-like activity of the complexes of the present invention (b) was evaluated by comparison of survival rates of a control group, those fed a cyclodextrin complex of a retinoid-polymer and those fed a free retinoid derivative.
^a The control rats received 0.2 mL of cottonseed oil
intraperitoneally while the treated animals received […] of retinyl
acetate or retinoic acid in 0.2 mL cottonseed oil or retinaldextran
complex (100 μg of retinal equivalent) in 0.2 mL water. Subsequently,
the rats received a vitamin Adeficient diet for periods indicated in the
Table and their survival was followed.
In the second series of experiments, compared in Table 2, the retinal-carboxymethyldextran complex was administered intraperitoneally and the survival of the vitamin A-deficient rats was followed during the 28 to 35 days of a vitamin A-deficient diet. […] In contrast, the control rats as well as those rats which received retinoic acid (Experiment 3) died.

The nature of another series: physchem. To be noted: isotonic buffered saline.
Another series has as its system S91 melanoma cells. The series can be described thus: S91 melanoma cell proliferation (growth inhibition). In kind it is cell-based. To be noted: for inhibition at 0.2 µM: Mus musculus, S91, 144 h, read-out: Percentage of growth inhibition. On the procedure: Medium was chaged on Day 3. The cells were treated for 6 days
The nature of another series: in vitro. To be noted: mouse, s9. An excerpt:
Decreased plating efficiency and cell lysis are considered indications of cytotoxic effects.

The mark [4] stands for this setting: buffered saline with α-cyclodextrin, α-cyclodextrin, 50 mg/ml.
[5] abbreviates: buffered saline with β-cyclodextrin, β-cyclodextrin, 17 mg/ml.
Where [6] appears, read: physiological buffered saline, dodecakis-2,6-O-methyl-α-cyclodextrin, 25 mg/ml.
Where [7] appears, read: physiological buffered saline, hexadecakis-2,6-O-methyl-γ-cyclodextrin, 25 mg/ml.
Where [8] appears, read: physiological buffered saline, solubilization agent: none.
The mark [9] stands for this setting: physiological buffered saline, tetradecakis-2,6-O-methyl-β-cyclodextrin, 50 mg/ml.
Setting [10] is: physiological buffered saline, γ-cyclodextrin, 50 mg/ml.

From the text for physchem: The concentration of retinal in the complex was estimated by comparison of the absorbance at the peak of the absorbance spectrum with the absorbance of free retinal in ethanol at 380 nm.

As a reminder, the solubility is how much of the substance goes into solution per volume. On to `CC1=C(/C=C/C(C)=C/C=C/C(C)=C/C(=O)O)C(C)(C)CCC1` [retinoic acid], for which the “Serum retinol (in words)” value in the series on vitamin A-deficient rats [1] is listed as “not detectable”. Besides, the solubility in series [2] (setting [4]) came out at 140 µg/mL (≈ 466 µM); in series [2] (setting [5]), 2000 µg/mL (≈ 6660 µM); in series [2] (setting [6]), 460 µg/mL (≈ 1530 µM); in series [2] (setting [7]), 140 µg/mL (≈ 466 µM); in series [2] (setting [8]) it was 20 µg/mL (≈ 66.6 µM); in series [2] (setting [9]), 460 µg/mL (≈ 1530 µM). Further, the solubility in series [2] (setting [10]) amounted to 130 µg/mL (≈ 433 µM). Further, the “day of death of animals” value with vitamin A-deficient rats [3] (Experiment 3, individual animals) is 14 days and 28 days and 30 days. Also, in the series on vitamin A-deficient rats [3] (Experiment 3, 31 days on vitamin A-deficient diet, intraperitoneal), the “No. of surviving animals/total” value is listed as 0/3. The “survival / vitamin A-like activity (in words)” value in the series with vitamin A-deficient rats [3] (intraperitoneal, 28 to 35 days of vitamin A-deficient diet) was “died”.

In general, inhibition refers to the change of the read-out against control, counted positive when it falls. For the compound `CC1=C(/C=C/C(C)=C/C=C/C(C)=C/C=O)C(C)(C)CCC1` [retinal], the solubility in the series “physchem” was below 0.01 µg/mL; in series [2] (setting [4]), 4 µg/mL (≈ 14.1 µM); in series [2] (setting [5]), 2 µg/mL (≈ 7.03 µM); in series [2] (setting [6]), 7 µg/mL (≈ 24.6 µM); in series [2] (setting [7]), 4 µg/mL (≈ 14.1 µM); in series [2] (setting [8]) it was below 1 µg/mL. Further, the solubility in series [2] (setting [9]) is 570 µg/mL (≈ 2000 µM); in series [2] (setting [10]) it was 1 µg/mL (≈ 3.52 µM). For the same compound, the “growth rate of cells after 48 hours (in words)” value with S91 melanoma cells (48 hours, retinal 1 μM, complex 10 μM retinal moiety, FIG. 3, vs untreated controls) is “reduced in comparison to the untreated controls”. The “growth inhibition, dose dependence (in words)” value in the series on S91 melanoma cells (6 days, below 2 μM (retinal) and 40 μM (complex), FIG. 2) is given as “dose-dependent inhibition”. Also, the inhibition at 0.2 µM came to 28% with S91 melanoma cells (0.2 μM, 6 days) and 52% in the series with S91 melanoma cells (second retinal line, printed 0.2 μM, 6 days). Also, in the series on S91 melanoma cells (all concentrations where retinal is not toxic), the “relative potency as growth inhibitor (in words)” value is “more potent inhibitor than the corresponding complex”. Besides, in the series on S91 melanoma cells (first 24 hours, retinal 1 μM, complex 10 μM retinal moiety, FIG. 3), the “inhibition of cell proliferation, first 24 hours (in words)” value is given as “no apparent inhibition of cell proliferation”. Besides, the CC50 in “in vitro” came out at 4 µM. In the series “in vitro”, this compound yielded an MCC of at least 10 µM. In addition, the MNTC in the series “in vitro” was 2000 nM.

In the case of `CC(=O)OC/C=C(C)/C=C/C=C(C)/C=C/C1=C(C)CCCC1(C)C` [Retinyl acetate], the “No. of surviving animals/total” value in the series on vitamin A-deficient rats [3] (Experiment 1, 35 days on vitamin A-deficient diet, intraperitoneal) is 3/3; with vitamin A-deficient rats [3] (Experiment 2, 28 days on vitamin A-deficient diet, intraperitoneal) it was 4/4.
